Results on one compound are retold here after patent US20070249562A1, “TREATMENT OF ATRIAL FIBRILLATION” (priority 2006, published 2007).

Data set [1] has as its system Atrial Fibrillation. Nature of the data set: Randomized, double-blind placebo-controlled study in high-risk CABG patients; atrial fibrillation by 12-lead ECG. It is filed as in vivo, human. The note with it: for Reduction of AF compared to placebo: from POD 4 to POD 90. An excerpt:
A randomized, double-blind placebo-controlled, dose-ranging, parallel-arm multi-center study was undertaken, on high-risk patients undergoing CABG surgery with cardiopulmonary bypass. Patients were identified as “high risk” if they had two or more of the following risk factors: • Age greater than 65 years • Current smoker • History of diabetes mellitus requiring treatment other than diet • Evidence of left ventricular dysfunction or congestive heart failure • History of a previous non-disabling stroke, transient ischemic attack, or carotid endarterectomy • Urgent CABG intervention defined as the need to stay in the hospital (although the patient may be operated on within a normal scheduling routine). • History of myocardial infarction that occurred more than 48 hours but less than 6 weeks prior to CABG surgery • Prior peripheral artery surgery or angioplasty • Moderate renal dysfunction defined as […] >133 μmol/L (1.5 mg/dl), but <250 μmol/L (2.8 mg/dl) • Presence of at least one asymptomatic carotid artery stenosis (>50% ) either in one or two carotid arteries. Approximately 900 high risk pre-CABG patients in 42 different treatment centers in North America were screened and randomized to three groups of approximately 300 patients each, prior to their bypass surgery, as follows. Patients were either placed in a control group (placebo), treated with 250 mg/day of pyridoxal-5′-phosphate, (250 mg/day), or treated with 750 mg day of pyridoxal-5′-phosphate (750 mg/day). The first dose of study medication was administered at 3-10 hours prior to CABG surgery. In the event of surgery delay or rescheduling, a second pre-operative dose of pyridoxal-5′-phosphate was administered so that all patients received study medication 3-10 hours before surgery. Treatment continued for 30 days after surgery (post operative day (POD) 30). Patients received follow-up evaluations up to and including postoperative day (POD) 4, on POD 30 and on POD 90. 12-lead ECG were taken at baseline (Pre-Op), POD 2, POD 4, POD 30 and POD 90 with patients on placebo, 250 mg/day pyridoxal-5′-phosphate (P5P), and 750 mg/day pyridoxal-5′-phosphate. The data from baseline, POD 4 and POD 90 were analyzed.

For data set [2] the following is noted: in water, alcohol, and ether; cited from earlier work.
Data set [3] relates to ATP induced calcium ion influx into cells (P2X purinoceptors). The note with it: a recent evaluation; suggested due to inhibition of P2X purinoceptors; cited from earlier work.

As for `Cc1ncc(COP(=O)(O)O)c(C=O)c1O` [pyridoxal-5′-phosphate, 3-hydroxy-2-methyl-5-[(phosphonooxy)methyl]-4-pyridine-carboxaldehyde], the “Reduction of AF compared to placebo” value in data set [1] (250 mg dose, p=0.0084) was 51.75%. In addition, the “Reduction of AF compared to placebo” value in data set [1] (750 mg dose, p=0.013) is 49.08%. For the same compound, in data set [1] (250 mg/day P5P (n = 301)), the “Number of patients who had AF at POD 4” value is reported as 56, the “Percent of patients who had AF at POD 4” value amounted to 18.60%, the “Number of patient who had AF at POD 90” value is recorded as 17 and the “Percent of patient who had AF at POD 90” value came to 5.65%. Moreover, in data set [1] (750 mg/day P5P (n = 302)), the “Number of patients who had AF at POD 4” value worked out at 63, the “Percent of patients who had AF at POD 4” value came out at 20.86%, the “Number of patient who had AF at POD 90” value came out at 18 and the “Percent of patient who had AF at POD 90” value was 5.96%. Further, in data set [2], the Solubility result was “essentially insoluble”. Also, in data set [3], the “Effect on ATP induced calcium ion influx into cells” value is “inhibits”.
